Data taken from the supplement of paper PMC11962398.

How the values were obtained:
BI-2493 [1] = compound: T1, C[C@H]1CNCCN1c1nccc(-c2noc3c2CCC[C@@]32CCCc3sc(N)c(C#N)c32)n1 [BI-2493]; experiment: 1 - AUC of viability dose-response curve (sensitivity) (fraction); higher = more sensitive; details: 5 days
Method: (§1)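 PRISM pooled barcoded cancer cell line viability screen (Broad Institute) with BI-2493 at 8 doses in threefold dilutions from 0.00457 to 10 µmol/L, 5-day treatment; curves fitted per cell line. IC50 is undefined (placeholder) for resistant lines. AUC is capped at 1, and sensitivity is reported as 1 − AUC.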

BI-2493 [2] = compound: T1, BI-2493; details: 5 days
Method: as §1

| Test System | 1 - AUC of viability dose-response curve (BI-2493 [1]) | IC50 of cell viability (BI-2493 [2]) [µM] |
| --- | --- | --- |
| WM2664_SKIN | 0.0151 | 9.22 |
| WSUDLCL2_HAEMATOPOIETIC_AND_LYMPHOID_TISSUE | 0.156 | 4.99 |
| YAPC_PANCREAS | 0.287 | 2.97 |
| YD8_UPPER_AERODIGESTIVE_TRACT | 0.0906 | > 10 |
| YD10B_UPPER_AERODIGESTIVE_TRACT | 0.0787 | 5.08 |
| YD15_SALIVARY_GLAND | 0.0555 | 6.99 |
| YD38_UPPER_AERODIGESTIVE_TRACT | 0.088 | 6.6 |
| YH13_CENTRAL_NERVOUS_SYSTEM | 0.0914 | > 10 |
| YKG1_CENTRAL_NERVOUS_SYSTEM | 0.0786 | 9.17 |
| YSCCC_BILIARY_TRACT | 0.104 | 5.65 |
| ZR751_BREAST | 0.1 | 4.57 |
